“And” between values parts separate entries of the source, which are not always exact repeats. Equal values may be shown once. “Also recorded” adds a separate entry of the source. Read-outs that look alike come from different tables or passages of the source. Marks after values point to notes of the source that are not given here.

The nature of data set [1]: CRA trough plasma concentrations (LC-MS/MS). In kind it is in vivo, human. The protocol: Cis retinoic acid PK studies were performed during the first 2 cycles of therapy. Serial sampling of venous blood was obtained at the following times: pre-treatment on Cycle 1, days 1, 2, 3, 4, 8, and 15 and pre-treatment on Cycle 2, days 1, 15, 16, 17, and 22. Blood samples were collected in heparinised tubes and were processed by centrifugation within 30 min at 1000 g at 4 °C for 10 min. Plasma was stored at −20 °C until analysis using a validated LC-MS/MS analytical method. Briefly, 1 ml plasma was extracted with 5 ml of acetonitrile/n-Butyl chloride (1 : 4, v/v) containing paclitaxel. Cis retinoic acid was separated on a Waters (Milford, MA, USA) X-Terra MS C18 (50 × 2.1 mm, 3.5 μm) column with 0.1% formic acid in acetonitrile/10 mM ammonium acetate (80 : 20, v/v) using isocratic flow of 0.2 ml min^−1 for 5 min. Cis retinoic acid was quantitated over the range of 5–2000 ng ml^−1. Quality control samples were assayed with each analytic run and were within 15% of the nominal concentration. […] Cmin at steady state (Css,min) was calculated for each patient by taking the average of the Cmin during each cycle.
Descriptive statistics were used to summarise patient characteristics, efficacy, and safety data. […] Differences between CRA Css,min during each cycle were evaluated statistically by use of a non-parametric, 2-sided Wilcoxon signed rank test for paired observations. […]

Details of data set [2]: method as in Thurn et al, 2011. To be noted: CRA after administration of a similar dose; ref Thurn et al, 2011; cited from earlier work.
The conditions of data set [3]: entinostat oral once weekly (fasting) with 1 mg kg^−1 CRA. As for the experimental part:
A starting dose of 4 mg m^−2 and a fixed CRA dose at 1 mg kg^−1 per dose level were planned. If a patient experienced toxicities the next lower level was 2 mg m^−2. […] Originally six dose levels were included ([…]). Each cohort consisted of three patients according to the standard 3+3 design, where if one patient experiences a DLT, three additional patients are enroled.
Dose-limiting toxicity was defined as first cycle adverse events ⩾grade 3 non-haematological or ⩾grade 4 haematological toxicities. The MTD was defined as one dose level below the dose at which ⩾ two of six patients experience DLT. […] Tumour response assessment was performed every two cycles (2 months) by both clinical assessment and imaging studies.

The subject of data set [4] is histone H3 acetylation in PBMCs. The experiment in a line: Western blot of histone H3 acetylation in PBMCs. In kind it is in vivo, human. To be noted: pre-treatment vs post-treatment time points, entinostat with CRA. The protocol: (§1) A pre-treatment sample was taken on day 15. During Cycle 2, and subsequent cycles, samples were collected pre-treatment on days 1 and 15. […] Peripheral blood mononuclear cells were collected from patients according to the study calendar schedule. For isolation of PBMCs, 10 ml of blood were collected in CPT tubes (Vacutainer CPT Cell Preparation Tube with NC: 0.45 ml; Ficoll: 1.0 ml; Becton Dickinson, Franklin Lakes, NJ, USA) and plasma was separated by centrifugation. Differential centrifugation of plasma was performed to isolate PBMCs, which were kept frozen at −80 °C until the end of the study schedule for each patient. Fine needle aspiration (FNA) was planned on Cycle 1, day 22 in patients with accessible tumours to assess changes in acetylation and signalling pathway expression. For western blotting, PBMCs and tumour tissue were lysed in M-PER mammalian protein extraction reagent (Pierce, Rockford, IL, USA) with protease inhibitor cocktail (Roche Diagnostics, Indianapolis, IN, USA), followed by brief sonication. Proteins (20 μg per lane) from cell lysates were applied to 4–15% Tris-HCl gels (Bio-Rad, Hercules, CA, USA) and blotted with primary antibodies that were purchased from Upstate (Lake Placid, NY, USA) for anti-acetyl histone H3 and from Sigma (St Louis, MO, USA) for β-actin clone A1978, ERK, and phosphorylated ERK.
On the technique in general: Immunoblotting shows a protein as a band on a membrane.

Data set [5] is described as follows: Entinostat plasma pharmacokinetics (LC-MS/MS, non-compartmental analysis). In kind it is in vivo, human. Conditions: for Cls/F (apparent oral clearance) / half-life / Tmax / Cmax / AUC: plasma; for half-life / Tmax / Cmax / AUC: human; for AUC: read-out: AUC0−∝. As for the experimental part: Pharmacokinetic studies were performed during the first 2 cycles of therapy. […] Blood samples were collected in heparinised tubes and were processed by centrifugation at 1000 g for 10 min. Plasma was stored at −20 °C until analysis. […] Quality control samples were assayed with each analytic run and were within 15% of the nominal concentration. Individual PK parameters were estimated by standard non-compartmental analysis, which was performed using WinNonlin, Version 5.3 (Pharsight Corporation, Mountain View, CA, USA; [Gibaldi, 1982]). Descriptive statistics were used to summarise patient characteristics, efficacy, and safety data. Pharmacokinetic parameters were summarised by descriptive statistics using dose-normalised parameters for dose-dependent parameters and actual values for dose-independent parameters. Kruskal–Wallis analysis of variance by ranks or the Wilcoxon rank-sum were used to compare the differences in entinostat PK parameters and CRA Css,min as a function of dose level. […] Statistical calculations were performed with the software package JMP, Version 4.0.4 (SAS Institute, Cary, NC, USA). The a priori level of significance was set at P<0.05.

Details of data set [6]: method as in Gore et al, 2008. Conditions: entinostat single agent, 7- or 14-day schedule; ref Gore et al, 2008; cited from earlier work.
Data set [7] deals with human prostate cancer cell line (LAPC4). Briefly: PSA secretion and PSA gene expression in LAPC4 cells in vitro. In kind it is cell-based. The text has this: The sudden rise of tumour marker CA 19-9 in a patient with unresectable pancreatic cancer was worrisome for a rapid clinical progression. However, the CT scan documented stable disease for 6 months. […] An increase in the PSA slope occurred while on treatment, with a rapid deflection following treatment discontinuation. […] This observation poses some challenges as in the clinical development of ‘differentiation’ therapies increasing tumour marker levels may not be a significant sign for disease progression, but rather a potential signal of biological activity. […] Accordingly, the use of tumour markers for disease response assessment is evolving and needs to be further validated in prospective studies. Recently, the Prostate Cancer Clinical Trials Working Group recommended that in most clinical trials early changes in PSA should not be acted on without other evidence of disease progression, and treatment should be continued for at least 12 weeks to ensure adequate drug exposure ([Scher et al, 2008]).

Data set [8] has as its system acetylated H3 in tumour tissue. Briefly: Western blot of tumour FNA: acetylated H3. In kind it is in vivo, human. Conditions: FNA of liver lesion, patient with metastatic prostate cancer; entinostat with CRA. As for the experimental part:
as §1

Data set [9] concerns phosphorylated ERK in tumour tissue. The experiment in a line: Western blot of tumour FNA: phosphorylated ERK. In kind it is in vivo, human. To be noted: FNA of liver lesion, patient with metastatic prostate cancer; entinostat with CRA. As for the experimental part:
as §1

On to `CC1=C(/C=C/C(C)=C/C=C/C(C)=C\C(=O)O)C(C)(C)CCC1` [CRA, 13-cis retinoic acid], for which the “average Css,min” value amounted to 194.9 ± 103.5 ng/mL in [1] (Cycle 1, CRA 1 mg kg^−1 per day oral with entinostat) and 131.8 ± 79.3 ng/mL in data set [1] (Cycle 2, CRA 1 mg kg^−1 per day oral with entinostat). In addition, the steady-state trough concentrations in [2] is 160 ± 19 ng/mL.

Usually Tmax stands for the time at which the peak concentration occurs. For orientation: Cmax means the maximum level reached in the sampled fluid or tissue. With `Nc1ccccc1NC(=O)c1ccc(CNC(=O)OCc2cccnc2)cc1` [entinostat], the “maximum tolerated dose (MTD)” value in data set [3] was < 5 mg m^−2 and 4 mg m^−2. The “histone H3 acetylation in PBMCs” value in [4] is “transient increased acetylation”. Besides, the “patients with measurable entinostat concentrations” value in [5] (1 week post-treatment) was 14 of 17. Further, the “Cls/F (apparent oral clearance)” value in data set [5] (all dose levels (Total) with CRA, Cycle 1, day 1, mean±s.d., n=13) was 14.9±22.0 ^c l h^−1 m^−2; in data set [5] (all dose levels (Total) with CRA, Cycle 1, day 1, mean±s.d., n=13, listed as Entinostat), 14.9±22.0 l h^−1 m^−2. Further, the variability in clearance in data set [5] (entinostat with CRA, patients with solid tumours) is 147%; in [6] it was 24–68%. The half-life in data set [5] (oral, all dose levels (Total) with CRA, Cycle 1, day 1, mean±s.d., n=13, read-out: T1/2 (terminal half-life) (converted)) was 114 ± 78.2 h; in data set [5] (po, 4 mg m^−2, read-out: T1/2 (converted)) it was 130 ± 88.5 h; in data set [5] (po, 5 mg m^−2, read-out: T1/2 (converted)), 77.3 ± 31.9 h. For the same compound, the Tmax in data set [5] (oral, all dose levels (Total, 4 and 5 mg m^−2) with CRA, Cycle 1, day 1, median (range), 18 patients) is 0.42 h; in [5] (po, 4 mg m^−2), 0.5 h; in data set [5] (po, 5 mg m^−2) it was 0.25 h; in data set [6] it was not above 1 h. Also, the Cmax in [5] (po, 4 mg m^−2) is 114 ± 84 ng/mL; in [5] (po, 5 mg m^−2), 109 ± 66 ng/mL. For the same compound, the AUC in [5] (po, 4 mg m^−2) is 587 ± 401 ng·h/mL; in data set [5] (po, 5 mg m^−2), 778 ± 648 ng·h/mL. The PSA gene expression result in [7] is recorded as “no change”. For the same compound, the “increase in PSA secretion into the culture media” value in data set [7] (achievable plasma concentrations of entinostat, data not shown) is listed as 2.5 fold. Further, in data set [8], the “intra-tumoural acetylated H3” value is reported as “increased; also recorded: induction”. Further, the “phosphorylated ERK protein levels in tumour” value in [9] was “decreased; also recorded: inhibition”.

Values taken from publication PMC3251867 (British Journal of Cancer, 2011).
